From patent US20230365537A1, “POLO LIKE KINASE 4 INHIBITORS” (ORIC Pharmaceuticals, Inc., priority 2021, published 2023)
pIC50: −log10 of the molar value.

Columns and labels:
[1] = target: human recombinant PLK4 (Homo sapiens (Human), UniProt O00444); assay: PLK4 Biochemical Assay (ADP-Glo); conditions: 0.5 nM PLK4, 8.0 µM ATP, 4.7 µM MBP, 6 hours at RT
Protocol: (§1) Activity of human recombinant PLK4 (ThermoFisher, cat #PV6396) was measured by quantification of adenosine diphosphate (ADP) using the ADP-Glo Kinase Assay Kit (Promega, cat #V9102). […] 5 µL of 1.0 nM PLK4 protein in assay buffer (50 mM HEPES, pH 7.5, 0.01% Brij-35, 0.01% BSA, 10 mM MgCl2, 1 mM EGTA, 1 mM DTT) was added to the plates. Test compounds and PLK4 were incubated for 15 minutes at room temperature (RT). […] Reactions were stopped and the remaining ATP depleted by adding 10 µL of ADP-Glo reagent (Promega, cat#V912B) and incubating for 40 minutes at RT. The simultaneous conversion of the remaining ADP to ATP and measurement of the newly synthesized ATP was achieved by addition of 20 µL Kinase Detection reagent (Promega, cat #V914B), incubation for 30 min at RT, and luminescence detection using the EnVision plate reader (PerkinElmer). […] The IC50 values reported in Table 2 were determined using four parameter non-linear regression curve fit.

[2] = target: human recombinant Aurora A (Homo sapiens (Human), UniProt O14965); assay: Aurora A Kinase Biochemical Assay (ADP-Glo); conditions: ratio of Aurora A IC50 to PLK4 IC50 (selectivity)
Protocol: as §1, with “Aurora A” for “PLK4”, “#PR5935A)” for “#PV6396)”, “5.0” for “1.0”, “Aurora A” for “PLK4 protein”, “10uL” for “10 µL”

[3] = target: human recombinant Aurora B (Homo sapiens (Human), UniProt Q96GD4); assay: Aurora B Kinase Biochemical Assay (ADP-Glo); conditions: ratio of Aurora B IC50 to PLK4 IC50 (selectivity)
Protocol: as §1, with “Aurora B” for “PLK4”, “#PR9210B)” for “#PV6396)”, “20” for “1.0”, “Aurora B” for “PLK4 protein”, “10uL” for “10 µL”

human recombinant PLK4, sequence (O00444 whole entry): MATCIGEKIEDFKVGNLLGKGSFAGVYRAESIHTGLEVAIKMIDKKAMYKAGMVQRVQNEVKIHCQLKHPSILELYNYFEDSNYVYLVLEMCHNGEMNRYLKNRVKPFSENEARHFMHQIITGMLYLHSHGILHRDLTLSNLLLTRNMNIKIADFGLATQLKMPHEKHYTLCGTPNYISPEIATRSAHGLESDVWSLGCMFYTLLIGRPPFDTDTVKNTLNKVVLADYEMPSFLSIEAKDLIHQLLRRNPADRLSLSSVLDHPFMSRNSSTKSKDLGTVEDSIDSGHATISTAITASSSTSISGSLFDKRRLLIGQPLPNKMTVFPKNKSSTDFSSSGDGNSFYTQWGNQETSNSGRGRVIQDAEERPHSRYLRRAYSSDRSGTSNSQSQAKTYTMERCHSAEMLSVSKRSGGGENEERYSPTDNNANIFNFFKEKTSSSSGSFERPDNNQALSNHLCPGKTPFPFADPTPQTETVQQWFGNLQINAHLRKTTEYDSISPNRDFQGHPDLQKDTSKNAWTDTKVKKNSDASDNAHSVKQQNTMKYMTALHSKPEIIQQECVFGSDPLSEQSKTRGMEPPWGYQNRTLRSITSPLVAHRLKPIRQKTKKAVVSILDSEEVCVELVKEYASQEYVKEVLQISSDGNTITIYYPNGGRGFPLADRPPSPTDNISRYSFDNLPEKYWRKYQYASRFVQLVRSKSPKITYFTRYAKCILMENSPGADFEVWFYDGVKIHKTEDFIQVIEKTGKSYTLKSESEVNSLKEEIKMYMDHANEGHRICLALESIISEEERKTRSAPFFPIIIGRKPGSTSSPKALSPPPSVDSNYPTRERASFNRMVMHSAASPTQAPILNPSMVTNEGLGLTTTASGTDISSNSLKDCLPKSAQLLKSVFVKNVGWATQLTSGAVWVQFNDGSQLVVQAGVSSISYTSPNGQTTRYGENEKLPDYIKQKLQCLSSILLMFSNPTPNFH
human recombinant Aurora B, sequence (Q96GD4 whole entry): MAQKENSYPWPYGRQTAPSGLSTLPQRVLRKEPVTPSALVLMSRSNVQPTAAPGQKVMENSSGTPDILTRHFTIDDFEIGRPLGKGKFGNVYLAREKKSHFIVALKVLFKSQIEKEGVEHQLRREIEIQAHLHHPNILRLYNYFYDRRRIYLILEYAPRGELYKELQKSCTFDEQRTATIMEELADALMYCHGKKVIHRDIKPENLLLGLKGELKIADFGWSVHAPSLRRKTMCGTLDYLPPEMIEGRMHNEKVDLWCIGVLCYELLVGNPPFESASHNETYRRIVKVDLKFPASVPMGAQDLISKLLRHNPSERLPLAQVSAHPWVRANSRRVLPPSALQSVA
human recombinant Aurora A, sequence (O14965 whole entry): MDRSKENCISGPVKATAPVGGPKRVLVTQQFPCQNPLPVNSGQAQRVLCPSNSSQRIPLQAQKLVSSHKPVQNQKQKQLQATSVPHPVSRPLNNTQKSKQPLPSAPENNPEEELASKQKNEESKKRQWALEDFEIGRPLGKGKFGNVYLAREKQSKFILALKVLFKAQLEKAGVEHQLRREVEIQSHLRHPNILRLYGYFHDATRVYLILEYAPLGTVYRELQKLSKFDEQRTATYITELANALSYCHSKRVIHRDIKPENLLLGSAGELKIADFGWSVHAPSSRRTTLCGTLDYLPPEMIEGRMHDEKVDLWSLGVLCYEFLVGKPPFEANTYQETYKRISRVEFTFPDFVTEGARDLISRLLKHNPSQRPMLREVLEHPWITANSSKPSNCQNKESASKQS

Row | SMILES | pIC50 [1] | [Aurora A IC50 (nM)]/[PLK4 IC50 (nM)] [2] | [Aurora B IC50 (nM)]/[PLK4 IC50 (nM)] [3]
1 | COc1ccc2c(c1)[C@]1(C[C@H]1c1ccc3c(Nc4ncnc(N5C6CCC5COC6)c4OC)n[nH]c3c1)C(=O)N2 [Example 37, (1R,2S)-2-(3-((6-(3-oxa-8-azabicydo[3.2.1]octan-8-yl)-5-methoxypyrimidin-4-yl)amino)-1H-indazol-6-yl)-5′-methoxyspiro[cydopropane-1,3′-indolin]-2′-one] | 7.90 | 1799.358 | 49.51
2 | COc1cnc(C)nc1Nc1n[nH]c2cc([C@@H]3C[C@]34C(=O)Nc3cccc(F)c34)ccc12 [Example 130, (1S,2S)-4′-fluoro-2-{3-[(5-methoxy-2-methylpyrimidin-4-yl)amino]-1H-indazol-6-yl}spiro[cyclopropane-1,3′-indol]-2′(1′H)-one] | 6.22 | 58.4811 | 60.1890
3 | COc1cnc(C)nc1Nc1n[nH]c2cc([C@@H]3C[C@@]34C(=O)Nc3ccc(OC(F)(F)F)cc34)ccc12 [Example 138, (1R,2S)-2-{3-[(5-methoxy-2-methylpyrimidin-4yl)amino]-1H-indazol-6-yl}-5′-(trifluoromethoxy)spiro[cyclopropane-1,3′-indol]-2′(1′H)-one] | 7.56 | 70 | 36
4 | COc1ccc2c(c1)[C@]1(C[C@H]1c1ccc3c(Nc4ncc(C(=O)N5CC(OC)C5)cc4OC)n[nH]c3c1)C(=O)N2 [Example 235, (1R,2S)-5′-methoxy-2-(3-{[3-methoxy-5-(3-methoxyazetidine-1-carbonyl)pyridm-2-yl]amino}-1H-indazol-6-yl)spiro[cyclopropane-1,3′-indol]-2′(1′H)-one] | 8.66 | 2053.4808 | 260.3503
5 | COc1ccc2c(c1)[C@]1(C[C@H]1c1ccc3c(Nc4ncncc4Cl)n[nH]c3c1)C(=O)N2 [Example 7] | 8.34 | 693.5732 | 47.27
6 | COc1ccc2c(c1)[C@]1(C[C@H]1c1ccc3c(Nc4nc(C)ncc4SC)n[nH]c3c1)C(=O)N2 [Example 162, (1R,2S)-5′-methoxy-2-(3-{[2-methyl-5-(methylsulfanyl)pyrimidin-4-yl]amino}-1H-indazol-6-yl)spiro[cyclopropane-1,3′-indol]-2′(1′H)-one] | 8.08 | 648.6776 | 105.2895
7 | COc1ccc2c(c1)[C@]1(C[C@H]1c1ccc3c(Nc4c(OC)cnn4C)n[nH]c3c1)C(=O)N2 [Example 75, (1R,2S)-5′-methoxy-2-{3-[(4-methoxy-1-methyl-1H-pyrazol-5-yl)amino]-1H-indazol-6-yl}spiro[cyclopropane-1,3′-indol]-2′(1′H)-one] | 6.80 | 173.4097 | 23.28
8 | COc1cnc(C)nc1Nc1n[nH]c2cc([C@@H]3C[C@]34C(=O)Nc3ccc(C)cc34)ccc12 [Example 127, (1S,2S)-2-{3-[(5-methoxy-2-methylpyrimidin-4-yl)amino]-1H-indazol-6-yl}-5′-methylspiro[cyclopropane-1,3′-indol]-2′(1′H)-one] | 5.66 | 22.77 | 22.7686
9 | COc1ccc2c(c1)[C@]1(C[C@H]1c1ccc3c(Nc4nc(C5COC5)ncc4OC(F)F)n[nH]c3c1)C(=O)N2 [Example 141, (1R,2S)-2-(3-{[5-(difluoromethoxy)-2-(oxetan-3-yl)pyrimidin-4-yl]amino}-1H-indazol-6-yl)-5′-methoxyspiro[cyclopropane-1,3′-indol]-2′(1′H)-one] | 7.88 | 327.4181 | 891.0891
10 | COc1ccc2c(c1)[C@]1(C[C@H]1c1ccc3c(Nc4cc(N5CCC5)ncn4)n[nH]c3c1)C(=O)N2 [Example 45, (1R,2S)-2-(3-{[6-(azetidin-1-yl)pyrimidin-4-yl]amino}-1H-indazol-6-yl)-5′-methoxyspiro[cyclopropane-1,3′-indol]-2′(1′H)-one] | 7.81 | 137.8309 | 4.603
11 | COc1ccc2c(c1)[C@]1(C[C@H]1c1ccc3c(Nc4nccc5c4OC[C@H]5CO)n[nH]c3c1)C(=O)N2 (single isomer, unassigned) [Example 34] | 8.49 | 893.3126 | 19.96
12 | COc1ccc2c(c1)[C@]1(C[C@H]1c1ccc3c(Nc4nn(C)cc4OC)n[nH]c3c1)C(=O)N2 [Example 79, (1R,2S)-5′-methoxy-2-{3-[(4-methoxy-1-methyl-1H-pyrazol-3-yl)amino]-1H-indazol-6-yl}spiro[cyclopropane-1,3′-indol]-2′(rH)-one] | 7.04 | 210.5378 | 6.986
13 | COc1ccc2c(c1)[C@]1(C[C@H]1c1ccc3c(Nc4ncccc4OC)n[nH]c3c1)C(=O)N2 [Example 17, (1R,2S)-5′-methoxy-2-{3-[(3-methoxypyridin-2-yl)amino]-1H-indazol-6-yl}spiro[cyclopropane-1,3′-indol]-2′(1′H)-one] | 8.37 | 1145.911 | 34.9
14 | COc1ccc2c(c1)[C@]1(C[C@H]1c1ccc3c(Nc4nccnc4OC)n[nH]c3c1)C(=O)N2 [Example 13, (1R,2S)-5′-methoxy-2-{3-[(3-methoxypyrazin-2-yl)amino)-1H-indazol-6-yl}spiro[cyclopropane-1,3′-indol]-2′(1′H)-one] | 8.52 | 667.5585 | 10.3
15 | COc1ccc2c(c1)[C@]1(C[C@H]1c1ccc3c(Nc4cn(C)nc4OC)n[nH]c3c1)C(=O)N2 [Example 25, (1R,2S)-5′-methoxy-2-{3-[(3-methoxy-1-methyl-1H-pyrazol-4-yl)amino]-1H-indazol-6-yl}spiro[cyclopropane-13′-indol]-2′(1′H)-one] | 7.47 | 249.6489 | 28.1
16 | COc1ccc2c(c1)[C@]1(C[C@H]1c1ccc3c(Nc4cnc(C(=O)N(C)C)cc4OC)n[nH]c3c1)C(=O)N2 [Example 253, 4-methoxy-5-({6-[(1R,2S)-5′-methoxy-2′-oxo-1′,2′-dihydrospiro[cyclopropane-1,3′-indol]-2-yl]-1H-indazol-3-yl}amino)-N,N-dimethylpyridine-2-carboxamide] | 8.22 | 709.6288 | 88.7161
17 | COc1ccc2c(c1)[C@]1(C[C@H]1c1ccc3c(Nc4cc(C(C)O)cnc4OC)n[nH]c3c1)C(=O)N2 (mixture of isomers) [Example 271, (1R,2S)-2-(3-{[5-(1-hydroxyethyl)-2-methoxypyridin-3-yl]amino}-1H-indazol-6-yl)-5′-methoxyspiro[cyclopropane-1,3′-indol]-2′(1′H)-one] | 8.22 | 825.7199 | 492.8831
18 | COc1ccc2c(c1)[C@]1(C[C@H]1c1ccc3c(Nc4cn(C)nc4C)n[nH]c3c1)C(=O)N2 [Example 63, (1R,2S)-2-{3-[(1,3-dimethyl-1H-pyrazol-4-yl)amino]-1H-indazol-6-yl}-5′-methoxyspiro[cyclopropane-1,3′-indol]-2′(1′H)-one] | 7.14 | 56.84 | 16.69
